Nine compounds from ChEMBL document CHEMBL1145434, “Optimization of novel combi-molecules: identification of balanced and mixed bcr-abl/DNA targeting properties” (Bioorg Med Chem Lett, 2007) can be followed below.

Each structure is given as a SMILES string. Calls of active or inactive are those of the source. The rule behind the calls is not given here.

In one assay the test system is K562. Description: cells. The note with it: Homo sapiens.
In assay [1] the target is Tyrosine-protein kinase ABL1 (Homo sapiens, UniProt P00519).
Sequence of Tyrosine-protein kinase ABL1 (P00519 whole entry): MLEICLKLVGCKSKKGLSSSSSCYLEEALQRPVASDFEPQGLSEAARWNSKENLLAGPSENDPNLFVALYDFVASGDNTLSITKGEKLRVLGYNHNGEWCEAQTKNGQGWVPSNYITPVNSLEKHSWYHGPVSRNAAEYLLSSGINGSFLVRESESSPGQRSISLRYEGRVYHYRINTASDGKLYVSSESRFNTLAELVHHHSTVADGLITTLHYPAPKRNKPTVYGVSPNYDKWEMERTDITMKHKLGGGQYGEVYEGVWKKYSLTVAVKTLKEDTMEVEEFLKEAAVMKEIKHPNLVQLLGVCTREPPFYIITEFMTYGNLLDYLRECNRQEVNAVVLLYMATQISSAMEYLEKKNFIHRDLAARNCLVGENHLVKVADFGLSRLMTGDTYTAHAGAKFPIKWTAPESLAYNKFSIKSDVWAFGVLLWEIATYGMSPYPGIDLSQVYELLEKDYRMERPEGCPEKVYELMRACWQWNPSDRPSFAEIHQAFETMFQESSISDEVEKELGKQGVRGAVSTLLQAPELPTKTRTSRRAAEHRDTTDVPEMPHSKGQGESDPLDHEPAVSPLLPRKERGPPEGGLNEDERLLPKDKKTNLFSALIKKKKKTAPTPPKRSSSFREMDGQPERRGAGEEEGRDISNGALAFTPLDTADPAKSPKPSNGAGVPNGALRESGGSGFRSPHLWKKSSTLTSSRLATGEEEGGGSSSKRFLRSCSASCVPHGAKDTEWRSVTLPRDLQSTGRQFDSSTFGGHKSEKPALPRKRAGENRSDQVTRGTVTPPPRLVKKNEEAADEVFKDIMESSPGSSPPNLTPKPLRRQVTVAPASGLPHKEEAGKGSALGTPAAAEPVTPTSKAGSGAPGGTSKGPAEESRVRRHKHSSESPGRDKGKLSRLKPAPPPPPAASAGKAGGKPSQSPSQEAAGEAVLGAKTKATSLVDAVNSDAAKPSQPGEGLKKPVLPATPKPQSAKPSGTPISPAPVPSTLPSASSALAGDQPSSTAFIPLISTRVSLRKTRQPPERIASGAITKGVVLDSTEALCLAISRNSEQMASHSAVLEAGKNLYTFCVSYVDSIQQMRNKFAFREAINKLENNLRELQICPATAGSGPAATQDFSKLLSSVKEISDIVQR
The species entered for a further assay is Homo sapiens. Description: Effect on DNA damage in p210 transfected M07 cells. The assay is classed as functional, cell-based.

Description for K562: Cytotoxicity against K562 cells by MTT assay

Turning to `Cc1ccc(NC(=O)c2ccc(N=NN(C)CO)c(C(F)(F)F)c2)cc1Nc1nccc(-c2cccnc2)n1`, the 50% inhibitory concentration (IC50) (usually the midpoint of a concentration-inhibition curve) in the assay on K562 is 187 nM.

Turning to `Cc1ccc(NC(=O)c2ccc(N=NN(C)C)c(C(F)(F)F)c2)cc1Nc1nccc(-c2cccnc2)n1`, the midpoint of inhibition in the assay on K562, the IC50, lay at 52 nM.

Turning to `Cc1ccc(NC(=O)c2ccc(N)c(C(F)(F)F)c2)cc1Nc1nccc(-c2cccnc2)n1`, the half-maximal inhibitory concentration (IC50) in the assay with K562 is 316 nM.

Consider `Cc1ccc(NC(=O)c2ccc(N(CCCl)CCCl)cc2)cc1Nc1nccc(-c2cccnc2)n1`, for which the half-maximal inhibitory concentration (IC50) came out at 220 nM in assay [1] and 2460 nM with K562.

As for `Cc1ccc(NC(=O)c2ccc(CN(CCCl)CCCl)cc2)cc1Nc1nccc(-c2cccnc2)n1`, the values for the IC50 (in assay [1]; in the assay with K562) were greater than 10000 nM and greater than 100000 nM, respectively.

With `Cc1ccc(NC(=O)c2ccc(N)cc2)cc1Nc1nccc(-c2cccnc2)n1`, the concentration for half-maximal inhibition (IC50) in assay [1] is greater than 10000 nM.

In the assay with K562, `CNN=Nc1ccc(C(=O)Nc2ccc(C)c(Nc3nccc(-c4cccnc4)n3)c2)cc1Cl` came in with an IC50 of 9980 nM.

In the assay with K562, `Cc1ccc(NC(=O)c2ccc(CN(C)CCCl)cc2)cc1Nc1nccc(-c2cccnc2)n1` displayed a half-inhibitory concentration (IC50) of 79700 nM.

As to `CNN=Nc1ccc(C(=O)Nc2ccc(C)c(Nc3nccc(-c4cccnc4)n3)c2)cc1C(F)(F)F`, the result in the assay filed under Homo sapiens was Active. 113 nM corresponded to half-maximal inhibition in the assay on K562 (IC50).
